Reference: patent US20260327214A1, “1,3,4-OXADIAZOLE DERIVATIVE COMPOUNDS AS HISTONE DEACETYLASE 6 INHIBITOR, AND USES THEREOF” (CHONG KUN DANG PHARMACEUTICAL CORP., priority 2022, published 2026)

Assays:
human recombinant HDAC6 = target: T1, human recombinant HDAC6 (Homo sapiens, UniProt Q9UBN7); assay: HDAC6 enzyme activity inhibition test (HDAC Fluorometric Drug Discovery Kit); type: biochemical; settings: for HDAC6 selectivity (fold): HDAC6 over HDAC1; for IC50: human recombinant HDAC6, same protocol as HDAC1
T1 construct: purchased Calbiochem 382180
T1 sequence (Q9UBN7 1-1215): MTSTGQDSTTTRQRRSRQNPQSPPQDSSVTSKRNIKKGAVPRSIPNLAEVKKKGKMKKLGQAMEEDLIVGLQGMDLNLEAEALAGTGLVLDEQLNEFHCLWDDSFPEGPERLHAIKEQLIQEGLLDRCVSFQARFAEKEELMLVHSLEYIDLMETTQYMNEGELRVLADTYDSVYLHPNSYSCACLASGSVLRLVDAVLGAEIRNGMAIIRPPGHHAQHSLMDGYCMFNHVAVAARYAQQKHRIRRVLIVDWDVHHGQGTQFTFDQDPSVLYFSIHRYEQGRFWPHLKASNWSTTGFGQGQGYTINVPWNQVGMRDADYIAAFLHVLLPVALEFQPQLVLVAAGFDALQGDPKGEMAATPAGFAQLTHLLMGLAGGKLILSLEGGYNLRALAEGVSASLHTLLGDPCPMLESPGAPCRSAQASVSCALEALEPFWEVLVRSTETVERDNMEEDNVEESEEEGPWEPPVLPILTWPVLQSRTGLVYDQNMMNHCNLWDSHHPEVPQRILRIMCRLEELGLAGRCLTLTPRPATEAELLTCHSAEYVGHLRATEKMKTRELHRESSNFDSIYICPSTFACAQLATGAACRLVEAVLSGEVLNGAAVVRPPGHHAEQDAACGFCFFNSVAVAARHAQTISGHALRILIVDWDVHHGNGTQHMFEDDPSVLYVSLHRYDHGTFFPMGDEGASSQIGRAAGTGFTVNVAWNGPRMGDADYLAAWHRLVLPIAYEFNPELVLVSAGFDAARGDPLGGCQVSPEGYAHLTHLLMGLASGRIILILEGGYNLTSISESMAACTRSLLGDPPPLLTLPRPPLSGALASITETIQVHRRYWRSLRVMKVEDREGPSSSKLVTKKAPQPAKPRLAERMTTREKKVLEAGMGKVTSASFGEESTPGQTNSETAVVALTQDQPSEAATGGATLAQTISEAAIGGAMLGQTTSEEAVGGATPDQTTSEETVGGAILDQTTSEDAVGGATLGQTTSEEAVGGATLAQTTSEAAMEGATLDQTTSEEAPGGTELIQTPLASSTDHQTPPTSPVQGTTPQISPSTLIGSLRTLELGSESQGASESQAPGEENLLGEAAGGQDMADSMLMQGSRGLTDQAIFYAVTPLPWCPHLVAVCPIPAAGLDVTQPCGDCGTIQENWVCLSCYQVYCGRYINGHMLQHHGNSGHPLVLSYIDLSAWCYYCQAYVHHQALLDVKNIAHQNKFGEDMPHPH
Protocol: (§1) The following experiment was conducted to confirm the HDAC6 selectivity of the compound represented by Chemical Formula I of the present invention through the HDAC1 and HDAC6 enzyme activity inhibition test.
(§2) HDAC enzyme activity was measured using HDAC Fluorometric Drug Discovery Kit (BML-AK511, 516) manufactured by Enzo Life Science. For the HDAC1 enzyme activity test, human recombinant HDAC1 (BML-SE456) was used as an enzyme source and Fluor de Lys-®-″SIRT1 (BNL-KI177) was used as a substrate. The 5-fold diluted compound was dispensed in a 96-well plate, 0.3 μg of enzyme and 10 μM substrate were added to each well and reacted at 30° C. for 60 minutes, and Fluor de Lys® Developer II(BML-KI176) was added and reacted for 30 minutes to complete the reaction. Then, the fluorescence value (Ex 360, Em 460) was measured using a multiplate reader (Flexstation 3, Molecular Device). The HDAC6 enzyme was tested using the same protocol as the HDAC1 enzyme activity test method employing human recombinant HDAC6 (382180) from Calbiochem. For the final result, each […] value was calculated using the GraphPad Prism 4.0 program.

human recombinant HDAC1 = target: T2, human recombinant HDAC1 (Homo sapiens, UniProt Q13547); assay: HDAC1 enzyme activity inhibition test (HDAC Fluorometric Drug Discovery Kit); type: biochemical; settings: 30° C., 60 minutes, 10 μM substrate
T2 construct: purchased Enzo Life Science BML-SE456
T2 sequence (Q13547 whole entry): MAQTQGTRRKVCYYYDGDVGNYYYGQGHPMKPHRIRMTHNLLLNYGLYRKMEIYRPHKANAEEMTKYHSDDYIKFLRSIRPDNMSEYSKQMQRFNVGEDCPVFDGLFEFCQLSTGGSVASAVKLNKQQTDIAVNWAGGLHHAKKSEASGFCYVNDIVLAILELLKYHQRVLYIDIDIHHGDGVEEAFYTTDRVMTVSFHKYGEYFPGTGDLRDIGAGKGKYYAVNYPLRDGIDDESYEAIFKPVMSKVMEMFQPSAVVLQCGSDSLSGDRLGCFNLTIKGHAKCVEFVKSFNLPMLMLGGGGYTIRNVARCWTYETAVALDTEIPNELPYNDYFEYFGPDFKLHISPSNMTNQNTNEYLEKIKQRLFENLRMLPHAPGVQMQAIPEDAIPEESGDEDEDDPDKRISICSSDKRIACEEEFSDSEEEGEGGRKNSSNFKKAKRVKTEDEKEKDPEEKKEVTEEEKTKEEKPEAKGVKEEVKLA
Protocol: as §1, §2

Compound	HDAC6 selectivity (fold) (human recombinant HDAC6)	IC50 (human recombinant HDAC6)	IC50 (human recombinant HDAC1)
Fc1cccc(-c2nn(Cc3ncc(-c4nnc(C(F)F)o4)cc3F)c(=S)o2)c1 [Compound 48, 3-[[5-[5-(difluoromethyl)-1,3,4-oxadiazol-2-yl]-3-fluoro-2-pyridyl]methyl]-5-(3-fluorophenyl)-1,3,4-oxadiazol-2-thione]	437 fold	114 nM	> 50 µM
FC(F)c1nnc(-c2ccc(Cn3nc(-c4ccc(CN5CCN(C6CCCC6)CC5)cc4)oc3=S)nc2)o1 [Compound 79, 5-[4-[(4-cyclopentylpiperazin-1-yl)methyl]phenyl]-3-[[5-[5-(difluoromethyl)-1,3,4-oxadiazol-2-yl]-2-pyridyl]methyl]-1,3,4-oxadiazol-2-thione]	461 fold	108 nM	> 50 µM
FC(F)c1nnc(-c2ccc(Cn3nc(-c4cccnc4)oc3=S)nc2)o1 [Compound 52, 3-[[5-[5-(difluoromethyl)-1,3,4-oxadiazol-2-yl]-2-pyridyl]methyl]-5-(3-pyridyl)-1,3,4-oxadiazol-2-thione]	473 fold	106 nM	> 50 µM
O=c1oc(-c2ccc3[nH]ccc3c2)nn1Cc1ccc(-c2nnc(C(F)F)o2)cn1 [Compound 3, 3-[[5-[5-(difluoromethyl)-1,3,4-oxadiazol-2-yl]-2-pyridyl]methyl]-5-(1H-indol-5-yl)-1,3,4-oxadiazol-2-one]	3497 fold	14.3 nM	> 50 µM
FC(F)c1nnc(-c2ccc(Cn3nc(-c4cccs4)oc3=S)nc2)o1 [Compound 50, 3-[ [5-[5-(difluoromethyl) -1,3,4-oxadiazol-2-yl] -2-pyridyl]methyl] -5-(2-thienyl)-1,3,4-oxadiazol-2-thione]	588 fold	85.1 nM	> 50 µM
CN(C)Cc1cccc(-c2nn(Cc3ncc(-c4nnc(C(F)F)o4)cc3F)c(=S)o2)c1 [Compound 117, 3-[[5-[5-(difluoromethyl)-1,3,4-oxadiazol-2-yl]-3-fluoro-2-pyridyl]methyl]-5-[3-[(dimethylamino)methyl]phenyl]-1,3,4-oxadiazol-2-thione]	675 fold	74.1 nM	> 50 µM
Cc1ncc(-c2nn(Cc3ncc(-c4nnc(C(F)F)o4)cc3F)c(=S)o2)s1 [Compound 61, 3-[[5-[5-(difluoromethyl)-1,3,4-oxadiazol-2-yl]-3-fluoro-2-pyridyl]methyl]-5-(2-methylthiazol-5-yl)-1,3,4-oxadiazol-2-thione]	540 fold	92.6 nM	> 50 µM
FC(F)c1nnc(-c2ccc(Cn3nc(-c4ccccn4)oc3=S)nc2)o1 [Compound 46, 3-[[5-[5-(difluoromethyl)-1,3,4-oxadiazol-2-yl]-2-pyridyl]methyl]-5-(2-pyridyl)-1,3,4-oxadiazol-2-thione]	1171 fold	42.7 nM	> 50 µM
O=c1sc(-c2cccc(CN3CCN(C4CCC4)CC3)c2)nn1Cc1ccc(-c2nnc(C(F)F)o2)cn1 [Compound 64, 5-[3-[(4-cyclobutylpiperazin-1-yl)methyl]phenyl]-3-[[5-[5-(difluoromethyl)-1,3,4-oxadiazol-2-yl]-2-pyridyl]methyl]-1,3,4-thiadiazol-2-one]	418 fold	120 nM	> 50 µM
O=c1oc(-c2ccccc2F)nn1Cc1ccc(-c2nnc(C(F)F)o2)cn1 [Compound 15, 3-[[5-[5-(difluoromethyl)-1,3,4-oxadiazol-2-yl]-2-pyridyl]methyl]-5-(2-fluorophenyl)-1,3,4-oxadiazol-2-one]	524 fold	95.5 nM	> 50 µM
CC(C)N1CCC(c2cccc(-c3nn(Cc4ccc(-c5nnc(C(F)F)o5)cn4)c(=S)o3)c2F)CC1 [Compound 80, 3-[[5-[5-(difluoromethyl)-1,3,4-oxadiazol-2-yl]-2-pyridyl]methyl]-5-[2-fluoro-3-(1-isopropyl-4-piperidyl)phenyl]-1,3,4-oxadiazol-2-thione]	649 fold	77.1 nM	> 50 µM
CC(C)N1CCN(c2ccc(-c3nn(Cc4ccc(-c5nnc(C(F)F)o5)cn4)c(=O)o3)cc2)CC1 [Compound 22, 3-[[5-[5-(difluoromethyl)-1,3,4-oxadiazol-2-yl]-2-pyridyl]methyl]-5-[4-(4-isopropylpiperazin-1-yl)phenyl]-1,3,4-oxadiazol-2-one]	479 fold	104 nM	> 50 µM
FC(F)c1nnc(-c2ccc(Cn3nc(-c4ccc(CN5CC[C@@H](F)C5)cc4)oc3=S)nc2)o1 [Compound 97, 3-[[5-[5-(difluoromethyl)-1,3,4-oxadiazol-2-yl]-2-pyridyl]methyl]-5-[4-[[(3R)-3-fluoropyrrolidin-1-yl]methyl]phenyl]-1,3,4-oxadiazol-2-thione]	862 fold	58.1 nM	> 50 µM
CN1CCN(c2cccc(-c3nn(Cc4ccc(-c5nnc(C(F)F)o5)cn4)c(=S)o3)c2)CC1 [Compound 75, 3-[[5-[5-(difluoromethyl)-1,3,4-oxadiazol-2-yl]-2-pyridyl]methyl]-5-[3-(4-methylpiperazin-1-yl)phenyl]-1,3,4-oxadiazol-2-thione]	1149 fold	43.5 nM	> 50 µM
FC(F)c1nnc(-c2ccc(Cn3nc(-c4ccc(CN5CCC5)s4)oc3=S)nc2)o1 [Compound 123, 5-[5-(azetidine-1-ylmethyl)-2-thienyl]-3-[[5-[5-(difluoromethyl)-1,3,4-oxadiazol-2-yl]-2-pyridyl]methyl]-1,3,4-oxadiazol-2-thione]	1109 fold	45.1 nM	> 50 µM
CC1CCN(Cc2ccc(-c3nn(Cc4ncc(-c5nnc(C(F)F)o5)cc4F)c(=S)o3)cc2)CC1 [Compound 111, 3-[[5-[5-(difluoromethyl)-1,3,4-oxadiazol-2-yl]-3-fluoro-2-pyridyl]methyl]-5-[4-[(4-methyl-1-piperidyl)methyl]phenyl]-1,3,4-oxadiazol-2-thione]	549 fold	91 nM	> 50 µM
CC1CCN(Cc2ccc(-c3nn(Cc4ccc(-c5nnc(C(F)F)o5)cn4)c(=O)o3)c(F)c2)CC1 [Compound 4, 3-[[5-[5-(difluoromethyl)-1,3,4-oxadiazol-2-yl]-2-pyridyl]methyl]-5-[2-fluoro-4-[(4-methyl-1-piperidyl)methyl]phenyl]-1,3,4-oxadiazol-2-one]	595 fold	84.1 nM	> 50 µM
CC(=O)N1CC(N2CCC(c3cccc(-c4nn(Cc5ccc(-c6nnc(C(F)F)o6)cn5)c(=O)o4)c3F)CC2)C1 [Compound 28, 5-[3-[1-(1-acetylazetidine-3-yl)-4-piperidyl]-2-fluoro-phenyl]-3-[[5-[5-(difluoromethyl)-1,3,4-oxadiazol-2-yl]-2-pyridyl]methyl]-1,3,4-oxadiazol-2-one]	626 fold	79.9 nM	> 50 µM
CC(C)N1CCC(c2ccc(-c3nn(Cc4ccc(-c5nnc(C(F)F)o5)cn4)c(=O)s3)cc2)CC1 [Compound 55, 3-[[5-[5-(difluoromethyl)-1,3,4-oxadiazol-2-yl]-2-pyridyl]methyl]-5-[4-(1-isopropyl-4-piperidyl)phenyl]-1,3,4-thiadiazol-2-one]	634 fold	78.9 nM	> 50 µM
